Results from patent publication US11697636B2, “Substituted benzamides” (Hoffmann-La Roche Inc., priority 2009, dated 2023).
Structures can show the parent of a compound that is named as a salt.

Target: mouse TAAR1 (Mus musculus (Mouse), UniProt Q923Y8)
Experiment: Radioligand binding assay on mouse TAAR1
Details: mouse TAAR1, HEK-293 membranes; first value of mouse/rat pair
Experimental: For the construction of expression plasmids the coding sequences of human, rat and mouse TAAR 1 were amplified from genomic DNA essentially as described by Lindemann et al.. […] PCR products were subcloned into the pIRESneo2 vector (BD Clontech, Palo Alto, Calif.), and expression vectors were sequence verified before introduction in cell lines.
HEK293 cells (ATCC #CRL-1573) were cultured essentially as described by Lindemann et al. (2005). […] After a culture period of about 10 d clones were isolated, expanded and tested for responsiveness to trace amines (all compounds purchased from Sigma) with the cAMP Biotrak Enzyme immunoassay (EIA) System (Amersham) following the non-acetylation EIA procedure provided by the manufacturer.
Radioligand Binding Assay on Mouse TAAR1
Membrane Preparation and Radioligand Binding.
HEK-293 cells stably expressing mouse TAAR1 were maintained at 37° C. and 5% CO2 in DMEM high glucose medium, containing fetal calf serum (10%, heat inactivated for 30 min at 56° C.), penicillin/streptomycin (1%), and 375 μg/ml geneticin (Gibco). Cells were released from culture flasks using trypsin/EDTA, harvested, washed twice with ice-cold PBS (without Ca^2+ and Mg^2+), pelleted at 1′000 rpm for 5 min at 4° C., frozen and stored at −80° C. […] With each new membrane batch the dissociation constant (Kd) was determined via a saturation curve. […]

mouse TAAR1, sequence (Q923Y8 whole entry): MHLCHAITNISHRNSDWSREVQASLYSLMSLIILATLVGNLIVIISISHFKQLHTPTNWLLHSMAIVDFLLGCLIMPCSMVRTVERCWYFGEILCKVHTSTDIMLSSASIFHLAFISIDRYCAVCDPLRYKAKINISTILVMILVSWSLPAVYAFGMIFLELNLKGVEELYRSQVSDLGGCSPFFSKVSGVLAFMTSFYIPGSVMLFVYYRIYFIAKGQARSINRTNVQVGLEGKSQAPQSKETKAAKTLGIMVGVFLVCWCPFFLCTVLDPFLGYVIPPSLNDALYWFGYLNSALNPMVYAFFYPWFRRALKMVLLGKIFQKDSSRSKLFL

Ki: 32 µM
SMILES: O=C(Nc1ccccc1)Nc1ccc(C2CCNC2)cc1 (racemic) [Example 6, (RS)-1-Phenyl-3-(4-pyrrolidin-3-yl-phenyl)-urea hydrochloride]
